Data from patent US8501775B2, “Anthelmintics for preventing parasitic infections in humans and animals” (SALTIGO GmbH, priority 2000, dated 2013).

tested on: cercariae of Schistosoma mansoni; experiment: not given; conditions: literature statement; cited from earlier work

| Compound | effect on cercariae of Schistosoma mansoni |
| --- | --- |
| CCN(CC)C(=O)c1cccc(C)c1 [DEET, N,N-Diethyl-m-toluamide] | acts against cercariae |
| Oc1c(Cl)cc(Cl)c(Cl)c1Cc1c(O)c(Cl)cc(Cl)c1Cl [hexachlorophene] | lethal effect |

tested on: not given; experiment: not given; conditions: literature / regulatory statement; cited from earlier work

| Compound | toxicity / hazard |
| --- | --- |
| O=C(Nc1ccc([N+](=O)[O-])cc1Cl)c1cc(Cl)ccc1O [Niclosamide] | may possibly cause inheritable genetic damage |
| Oc1c(Cl)cc(Cl)c(Cl)c1Cc1c(O)c(Cl)cc(Cl)c1Cl [hexachlorophene] | toxic on contact with the skin and when swallowed |

tested on: cercariae of Schistosoma mansoni; experiment: not given; conditions: topical, monkeys; literature statement; cited from earlier work

| Compound | action against the penetration of cercariae |
| --- | --- |
| O=C(Nc1ccc([N+](=O)[O-])cc1Cl)c1cc(Cl)ccc1O [Niclosamide] | acts against the penetration of cercariae |

tested on: Schistosoma mansoni cercariae; experiment: Activity against Schistosoma mansoni cercariae (survival/mobility observed with a stereomagnifier); parameters: key: no effect during the entire test period of 120 minutes; 1: weak effect (the cercariae have a strongly reduced mobility); 2: good effect (the cercariae are only slightly mobile and bent); 3: full effect (the cercariae are completely immobile); conditions: 500 μl/l final concentration of the active compounds; test period of 120 minutes
Description: Activity Against Schistosoma mansoni Cercariae
Snails (Biomphalaria glabrata) were infected by incubating each of them with 8 miracidia in 10 ml of water overnight. About 6 to 9 weeks after the infection, cercariae were obtained by irradiating the snails, which had been kept in darkness, with light, followed by collection of the swarming cercariae within 2 hours.
Such an amount of cercariae-containing water (1 or 2 ml, see below) was added to the test batches that each batch contained about 100 to 150 cercariae.
9 ml of aquarium water was then added, and the batch was shaken vigorously. After (delayed) addition of 1 ml of cercariae suspension, survival of the cercariae was in each case observed immediately using a stereomagnifier.

| Compound | Assessment |
| --- | --- |
| CC(C)(C)OC(=O)N1CCCCC1CCO (stereo not shown) | 3 |
| C=CCOC(=O)N1CCCCC1CCO (stereo not shown) | 3 |
| CCCCOC(=O)N1CCCCC1CCO (stereo not shown) | 3 |
| CCC(C)OC(=O)N1CCCCC1CCO (stereo not shown) | 2 |
| CCC(C)COC(=O)N(C)CCCO (stereo not shown) | 1 |
| CCCCOC(=O)N(C)CCCO | 1 |
| CN(CCCO)C(=O)OC1CCCCC1 | 1 |
| C=CCCOC(=O)N(C)CCCO | 2 |
